Data reported in US20230116113A1, “USE OF COMPOUNDS THAT ARE ABLE TO CROSS-LINK THE EXTRACELLULAR MATRIX FOR PREVENTING OR INHIBITING THE MIGRATION OF CANCER CELLS” (CAMBRIDGE ENTERPRISE LIMITED, priority 2020, published 2023).
“Also recorded” adds a separate entry of the source.

What was measured:
[1] = test system: K7M2 mouse osteosarcoma cell line; assay: Invasion of K7M2 osteosarcoma tumour spheroids into 3D 1.5 mg/ml collagen-medium model ECM; type: cell-based; conditions: monitored for 14 days
Method: Bone extracellular matrix consists primarily of calcified collagen type I. Calcification is invariably disrupted around metastasizing osteosarcoma tumours, allowing tumour cells to migrate through the extracellular matrix. Thus, we chose to model the bone/osteosarcoma extracellular matrix with a 3D 1.5 mg/ml collagen gel. This concentration of collagen gel promoted invasion by the K7M2 mouse osteosarcoma cell line (FIG. 9).
Collagen gels (1.5 mg/ml) in DMEM complete medium as model bone extracellular matrix was prepared from a stock 5 wt % collagen gel (IBIDI, Germany). K7M2 cells were cultured in DMEM complete medium supplemented with 10% foetal calf serum, antibiotics, and pyruvate. The cultures were maintained in T-75 cm^2 culture flasks and incubated at 37° C. and 5% CO2 in a humidified incubator. At 70% confluence, cells were detached from the surface of the flasks after incubating for 2 min at room temperature with 4 ml of trypsin-EDTA. The cell suspension was then centrifuged at 1400 rpm for 5 min at room temperature to pellet the cells. […]
Cell invasion was monitored for 14 days (FIG. 10). […]

[2] = cited from earlier work
[3] = test system: U87 GBM cells
Method: Calcein AM (acetoxymethyl), a non-fluorescent ester derivative of the fluorescent calcein dye, was used to determine the viability and integrity of spheroids. Spheroids were soaked in 1 uM calcein-AM in live cell imaging buffer for 45 minutes in a humidified 5% CO2 incubator. After incubation, the calcein-AM solution was removed, spheroids were washed three times with PBS and transferred with 50 μl of media to the top of hyaluronic acid-serum gels in chamber slide wells prepared as above. In controls, spheroids were placed into the wells with 300 μl of MEM complete supplemented medium.
(§1) Migration of cells from the spheroids, cell viability and the vertical position of the spheroid in the well were recorded on days 4, 7 and 16 using bright field, epifluorescence or confocal microscopy, before the samples were returned to the incubator to continue the experiment.

[4] = test system: U87 cells; conditions: different trientine concentrations in phosphate-buffered saline
Method: FIG. 6: A. Optical images showing the effect of crosslinking 3D model brain ECM ionically with 5, 10 and 20 mM trientine on the migration of glioblastoma U87 cells from tumour spheroids compared to controls with no trientine crosslinking. […] B. Quantification of the extent of cancer cell migration in the 3D model brain ECM with addition of different trientine concentrations. C.

[5] = test system: U87 GBM cells; assay: Migration and proliferation of cells from U87 tumour spheroids in 3D hyaluronic acid-serum model brain ECM; type: cell-based; conditions: 5, 10 and 20 mM trientine mixed into 2 wt % HA-serum model ECM; days 1, 3, 6, 10
Excerpt: We first established a 3D extracellular matrix (ECM) model for brain consisting of hyaluronic acid mixed with serum proteins to support GBM cell metabolism. We then used tumour spheroids, cultured from U87 GBM cell line cells, as 3D tumour models that we implanted into the hyaluronic acid-serum model brain ECM.
We fabricated hyaluronic acid-serum model brain ECMs containing 2 wt %, 3.5 wt % and 5 wt % hyaluronic acid to represent low, normal and high hyaluronic acid concentrations/levels of molecular entanglement with respect to brain extracellular matrix. The low hyaluronic acid concentration model ECMs can be expected to mimic an in vivo situation where there is substantial hyaluronic acid degradation and the high hyaluronic acid concentration was set to exceed the average hyaluronic acid concentration in brain ECM by 50%.
The different concentrations of hyaluronic acid-serum for model ECMs were prepared by mixing hyaluronic acid with MEM complete media and foetal calf serum. […]
as §1

SMILES: COC(=O)C1=CO[C@@H](O)[C@@H]2C(CO)=CC[C@H]12 [genipin]
- cell invasion of model collagen extracellular matrix ([1]; 0.05 wt % genipin in 1.5 mg/ml collagen gel): only minimal invasion
- cell invasion of model collagen extracellular matrix ([1]; 0.3 wt % genipin in 1.5 mg/ml collagen gel): no observable cell invasion
- acute toxicity ([2]; literature statement): low acute toxicity
- LD50 ([2]; mouse, in vivo, iv): 153 mg/kg

SMILES: Cc1cc2nc3c(=O)[nH]c(=O)nc-3n(C[C@H](O)[C@H](O)[C@H](O)CO)c2cc1C [riboflavin]
- cell metabolic activity (calcein-AM staining) [3]: remained metabolically active

SMILES: NCCNCCNCCN [trientine]
- toxicity to U87 cells (live/dead cell analysis) [4]: non-toxic to U87 cells
- cell migration from U87 tumour spheroids [5]: inhibited in a trientine-concentration dependent manner; also recorded: clearly inhibited
